{"source": "the supplement of paper PMC10307832", "assay_in_all_cases": "relative viability (nuclei count vs DMSO), 5 days (fraction); higher = more cells survive", "key": {"[1]": {"compound": "C1CNCCC1C2=CC(=NN2)C3=CC=NC=C3 + CS(=O)(=O)CCNCc1ccc(-c2ccc3ncnc(Nc4ccc(OCc5cccc(F)c5)c(Cl)c4)c3c2)o1 [Lapatinib] (partner 2 µM)", "procedure,_shortened": "(§1)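 After 5 days of treatment, lung cancer cells in 1536-well plates were fixed and stained in a single step (final 0.05% Triton X-100, 1% formaldehyde, 1 ug/ml Hoechst) and their nuclei counted on 4× images. Treatment had been applied by pin tool the day after seeding as one drug alone or as a fixed anchor-drug dose with five library-drug doses (not always all listed) in √10 steps. Relative viability is the nuclei count of treated wells divided by that of vehicle wells, and values are medians of duplicate plates.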"}, "[2]": {"compound": "C[C@@H](N)c1ccc(C(=O)Nc2ccnc3[nH]ccc23)cc1 + CC(=O)Nc1cccc(-n2c(=O)n(C3CC3)c(=O)c3c(Nc4ccc(I)cc4F)n(C)c(=O)c(C)c32)c1 [Trametinib] (partner 0.02 µM)", "procedure,_shortened": "as §1"}, "[3]": {"compound": "O[C@H]1CC[C@H](Nc2ncc3nc(Nc4c(F)cc(F)cc4F)n([C@H]4CCOC4)c3n2)CC1 [Tanzisertib] + CCNC(=O)c1noc(-c2cc(C(C)C)c(O)cc2O)c1-c1ccc(CN2CCOCC2)cc1 [Luminespib] (partner 0.01 µM)", "procedure,_shortened": "as §1"}, "[4]": {"compound": "O[C@H]1CC[C@H](Nc2ncc3nc(Nc4c(F)cc(F)cc4F)n([C@H]4CCOC4)c3n2)CC1 [Tanzisertib] + Cc1nc(Nc2ncc(C(=O)Nc3c(C)cccc3Cl)s2)cc(N2CCN(CCO)CC2)n1 [Dasatinib] (partner 0.075 µM)", "procedure,_shortened": "as §1"}}}
{"cell line": "UMC-11", "values": [{"measurement": "relative viability", "setting": "[1]; first compound 0.08 µM", "result": 0.73}, {"measurement": "relative viability", "setting": "[1]; first compound 0.8 µM", "result": 1.23}, {"measurement": "relative viability", "setting": "[1]; first compound 2.53 µM", "result": 1.05}, {"measurement": "relative viability", "setting": "[1]; first compound 8 µM", "result": 1.04}, {"measurement": "relative viability", "setting": "[2]; first compound 0.04 µM", "result": 0.867}, {"measurement": "relative viability", "setting": "[2]; first compound 0.1265 µM", "result": 0.767}, {"measurement": "relative viability", "setting": "[2]; first compound 0.4 µM", "result": 0.849}, {"measurement": "relative viability", "setting": "[2]; first compound 1.265 µM", "result": 0.184}, {"measurement": "relative viability", "setting": "[2]; first compound 4 µM", "result": 0.525}, {"measurement": "relative viability", "setting": "[3]; first compound 0.08 µM", "result": 1.1}, {"measurement": "relative viability", "setting": "[3]; first compound 0.253 µM", "result": 1}, {"measurement": "relative viability", "setting": "[3]; first compound 0.8 µM", "result": 0.946}, {"measurement": "relative viability", "setting": "[3]; first compound 2.53 µM", "result": 1.08}, {"measurement": "relative viability", "setting": "[3]; first compound 8 µM", "result": 1.03}, {"measurement": "relative viability", "setting": "[4]; first compound 0.08 µM", "result": 0.487}, {"measurement": "relative viability", "setting": "[4]; first compound 0.253 µM", "result": 0.456}, {"measurement": "relative viability", "setting": "[4]; first compound 0.8 µM", "result": 0.437}, {"measurement": "relative viability", "setting": "[4]; first compound 2.53 µM", "result": 0.449}, {"measurement": "relative viability", "setting": "[4]; first compound 8 µM", "result": 0.48}]}
